Data on 7 molecules can be found in US12186302B2, “Dipeptidyl peptidase-IV inhibitor and food with function claims” (TOYOTA JIDOSHA KABUSHIKI KAISHA, priority 2020, dated 2025).

Assay [1] has as its target T1, DPP-IV (Homo sapiens, UniProt P27487). To be noted: background art, JP Patent Publication (Kokai) No. 2018-118939 A; cited from earlier work.
Assay [2] deals with T1, DPP-IV. Put plainly: DPP (IV) Inhibitor Screening Assay Kit (Cayman Chemical), fluorescence. The assay is classed as biochemical. The conditions noted are these: for DPP-IV inhibitory activity (inhibition rate, FIG. 1): comparison of various catechins, 37° C., 30 minutes. An excerpt: In this Example, various catechins including a methylated catechin were used to examine their DPP-IV inhibitory activity. Regarding the DPP-IV inhibitory activity, a commercially available DPP (IV) Inhibitor Screening Assay Kit (manufactured by Cayman Chemical) was used. Catechins tested in this Example were epicatechin-3-O-gallate (ECG), epicatechin (EC), epigallocatechin(EGC), (−)-epigallocatechin gallate (EGCG), and (−)-epigallocatechin 3-(3″-O-methyl)gallate (EGCG3″Me). These catechins were purchased from Nagara Science Co., Ltd. In addition, caffeine was purchased from Sigma-Aldrich, and L-theanine was purchased from FUJIFILM Wako Pure Chemical Corporation for testing.
In the experiment, first, a sample (5 μL), buffer (15 μL), DPP-IV (5 μL), and a substrate (25 μL) were added to a 96-well plate and incubated at 37° C. for 30 minutes. Then, the fluorescence intensity was measured by using a fluorometer (Envision 2104 Multilaber Reader, manufactured by Perkin Elmer) (excitation wavelength: 355 nm; fluorescence wavelength: 450 nm).
Next, the fluorescence intensity measured with the addition of ultrapure water (5 μL), buffer (20 μL), and a substrate (25 μL) was subtracted as a background from the fluorescence intensity of each sample. The fluorescence intensity measured with the addition of ultrapure water (5 μL), buffer (15 μL), DPP-IV (5 μL), and a substrate (25 μL) was defined as 100% initial activity.
The inhibition rate was calculated by subtracting the fluorescence intensity of the sample from the fluorescence intensity of 100% initial activity, then dividing the difference by the fluorescence intensity of 100% initial activity, and finally multiplying the quotient by 100. As a positive control, sitagliptin included in the kit was used.
Specifically, in the experiment described above, the concentration of EGCG3″Me was set to 1 μM, 5 μM, 10 μM, 50 μM, 100 μM or 200 μM, and the DPP-IV inhibitory activity was measured using the DPP (IV) Inhibitor Screening Assay Kit.

T1 sequence (P27487 whole entry): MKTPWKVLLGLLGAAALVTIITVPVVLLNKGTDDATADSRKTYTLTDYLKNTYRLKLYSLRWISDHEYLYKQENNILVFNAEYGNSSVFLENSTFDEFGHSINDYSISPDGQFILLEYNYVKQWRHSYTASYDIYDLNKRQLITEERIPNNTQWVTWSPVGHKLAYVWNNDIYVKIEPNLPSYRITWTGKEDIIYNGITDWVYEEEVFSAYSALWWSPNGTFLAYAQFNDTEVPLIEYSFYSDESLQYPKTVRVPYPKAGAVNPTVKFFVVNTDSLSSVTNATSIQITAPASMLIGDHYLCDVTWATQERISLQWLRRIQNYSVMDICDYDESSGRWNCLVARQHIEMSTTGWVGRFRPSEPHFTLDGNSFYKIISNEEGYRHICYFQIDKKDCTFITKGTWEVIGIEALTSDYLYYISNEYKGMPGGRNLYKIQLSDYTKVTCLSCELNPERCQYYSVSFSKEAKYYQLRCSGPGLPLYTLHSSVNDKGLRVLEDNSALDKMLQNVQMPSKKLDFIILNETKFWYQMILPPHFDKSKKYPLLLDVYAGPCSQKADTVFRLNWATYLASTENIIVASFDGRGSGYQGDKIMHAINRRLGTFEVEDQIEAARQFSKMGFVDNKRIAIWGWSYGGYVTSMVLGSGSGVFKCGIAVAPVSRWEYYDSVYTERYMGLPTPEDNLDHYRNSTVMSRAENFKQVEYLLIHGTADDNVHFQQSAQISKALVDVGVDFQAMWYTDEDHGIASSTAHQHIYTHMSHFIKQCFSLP

Take `Oc1cc(O)c2c(c1)O[C@H](c1cc(O)c(O)c(O)c1)[C@H](O)C2` [EGC, epigallocatechin]: at DPP-IV [1], the DPP-IV inhibitory effect entry was “have the DPP-IV inhibitory effect”.
Regarding `O=C(O[C@@H]1Cc2c(O)cc(O)cc2O[C@H]1c1cc(O)c(O)c(O)c1)c1cc(O)c(O)c(O)c1` [GCg, gallocatechin gallate], at DPP-IV [1], the DPP-IV inhibitory effect result is “have the DPP-IV inhibitory effect”.
Turning to catechin gallate [Cg], the DPP-IV inhibitory effect entry on DPP-IV [1] was “have the DPP-IV inhibitory effect”.
Consider `O=C(O[C@@H]1Cc2c(O)cc(O)cc2O[C@@H]1c1ccc(O)c(O)c1)c1cc(O)c(O)c(O)c1` [ECg, epicatechin gallate], for which, at DPP-IV [1], the DPP-IV inhibitory effect entry was “have the DPP-IV inhibitory effect”.
In the case of “epigallocatechin-3-O-(3-O-methyl)gallate [EGCG3″Me]”, at DPP-IV [2] (1 μM, 5 μM, 10 μM, 50 μM, 100 μM or 200 μM), the “relationship between concentration and DPP-IV inhibitory activity (FIG. 2)” value is “tends to increase as the concentration increases”. At DPP-IV [2], the “DPP-IV inhibitory activity (inhibition rate, FIG. 1)” value is on record as “particularly excellent DPP-IV inhibitory activity”. At DPP-IV [2] (when concentration exceeds 50 μM), the “DPP-IV inhibitory activity (FIG. 2)” value was “extremely excellent DPP-IV inhibitory activity”.
Take `Oc1cc(O)c2c(c1)O[C@H](c1cc(O)c(O)c(O)c1)[C@@H](O)C2` [GC, gallocatechin]: at DPP-IV [1], the DPP-IV inhibitory effect entry was “have the DPP-IV inhibitory effect”.
As for (−)-epigallocatechin gallate [EGCG], the “DPP-IV inhibitory activity (inhibition rate, FIG. 1)” value on DPP-IV [2] is recorded as “excellent DPP-IV inhibitory activity”. Moreover, at DPP-IV [1], the DPP-IV inhibitory effect entry is “have the DPP-IV inhibitory effect”.
